Reference: patent US8288418B2, “Benzimidazole derivatives and their use for modulating the GABAA receptor complex” (Neurosearch A/S, priority 2006, dated 2012)

Tested on: not given
Assay: not given
Settings: not given

Row | melting point [°C] | Structure (SMILES)
1 | 220 to 223 | CC(=NO)c1ccc2c(c1)ncn2-c1cccc(-c2cccnc2O)c1 [Compound 15, 1-{1-[3-(2-Hydroxy-pyridin-3-yl)-phenyl]-1H-benzoimidazol-5-yl}-ethanone oxime]
2 | 133 to 137 | CC(O)c1ccc2c(c1)ncn2-c1cccc(-c2cccnc2O)c1 (stereo not shown) [Compound 16, 3-{3-[5-(1-Hydroxy-ethyl)-benzoimidazol-1-yl]-phenyl}-pyridin-2-ol]
3 | 95.5 | COc1cc(F)ccc1-c1cccc(-n2cnc3cc(C(F)(F)F)ccc32)c1 [Compound 9a, 1-(4′-Fluoro-2′-methoxy-biphenyl-3-yl)-5-trifluoromethyl-1H-benzoimidazole]
4 | 147 to 150 | CC(C)OC(=O)c1ccc2c(c1)ncn2-c1cccc(-c2cccnc2Cl)c1 [Compound 19, 1-[3-(2-Chloro-pyridin-3-yl)-phenyl]-1H-benzoimidazole-5-carboxylic acid isopropyl ester]

Target: GABAA receptor complex, benzodiazepine modulatory unit (cerebral cortex membranes)
Assay: In vitro inhibition of 3H-flunitrazepam (3H-FNM) binding
Design: species or system rat
Settings: inhibition of specific binding of 3H-FNM (1 nM), cerebral cortex membranes of male Wistar rats, 40 min at 2° C.
Procedure: In vitro Inhibition of ^3H-flunitrazepam (^3H-FNM) Binding
The GABA recognition site and the benzodiazepine modulatory unit can selectively be labelled with ^3H-flunitrazepam.
Preparations are performed at 0-4° C. unless otherwise indicated. Cerebral cortex from male Wistar rats (150-200 g) is homogenised for 5-10 sec in 20 ml Tris-HCl (30 mM, pH 7.4) using an Ultra-Turrax homogeniser. The suspension is centrifuged at 27,000×g for 15 min and the pellet is washed three times with buffer (centrifuged at 27,000×g for 10 min). The washed pellet is homogenized in 20 ml of buffer and incubated on a water bath (37° C.) for 30 min to remove endogenous GABA and then centrifuged for 10 min at 27,000×g. The pellet is then homogenized in buffer and centrifuged for 10 min at 27,000×g. The final pellet is resuspended in 30 ml buffer and the preparation is frozen and stored at −20° C.
The membrane preparation is thawed and centrifuged at 2° C. for 10 min at 27,000×g. The pellet is washed twice with 20 ml 50 mM Tris-citrate, pH 7.1 using an Ultra-Turrax homogeniser and centrifuged for 10 min at 27,000×g. The final pellet is resuspended in 50 mM Tris-citrate, pH 7.1 (500 ml buffer per g of original tissue), and then used for binding assays. Aliquots of 0.5 ml tissue are added to 25 μl of test solution and 25 μl of ^3H-FNM (1 nM, final concentration), mixed and incubated for 40 min at 2° C. Non-specific binding is determined using Clonazepam (1 μM, final concentration). After incubation the samples are added 5 ml of ice-cold buffer and poured directly onto Whatman GF/C glass fibre filters under suction and immediately washed with 5 ml ice-cold buffer. The amount of radioactivity on the filters is determined by conventional liquid scintillation counting. Specific binding is total binding minus non-specific binding.
25-75% inhibition of specific binding must be obtained, before calculation of an IC50.
The test value will be given as IC50 (the concentration (μM) of the test substance which inhibits the specific binding of ^3H-FNM by 50%).
Co is specific binding in control assays, and
Cx is the specific binding in the test assay.
(The calculations assume normal mass-action kinetics).

Row | IC50 [nM] | Structure (SMILES)
5 | 1.4 | COc1cc(F)ccc1-c1cccc(-n2cnc3cc(C(F)(F)F)ccc32)c1 [Compound 9a, 1-(4′-Fluoro-2′-methoxy-biphenyl-3-yl)-5-trifluoromethyl-1H-benzoimidazole]
6 | 0.95 | N=C(NO)c1ccc2c(c1)ncn2-c1cccc(-c2ccccc2Cl)c1 [Compound 12ha, 1-(2′-Chloro-biphenyl-3-yl)-N-hydroxy-1H-benzoimidazole-5-carboxamidine]
7 | 21 | COc1ccccc1-c1cccc(-n2cnc3cc(-c4cc[nH]n4)ccc32)c1 [Compound 9ak, 5-(1H-3-Pyrazolyl)-1-(2′-methoxy-biphenyl-3-yl)-1H-benzoimidazole]

Continued, compound first:

Row | Structure (SMILES) | IC50 [nM]
8 | CC(C)(O)c1ccc2c(c1)ncn2-c1cccc(-c2cccnc2F)c1 [Compound 9ada, 2-{1-[3-(2-Fluoro-pyridin-3-yl)-phenyl]-1H-benzoimidazol-5-yl}-propan-2-ol] | 4
9 | CC(C)(O)c1ccc2c(c1)ncn2-c1cccc(-c2ccccc2C#N)c1 [Compound 9aac, 3′-[5-(1-Hydroxy-1-methyl-ethyl)-benzoimidazol-1-yl]-biphenyl-2-carbonitrile] | 0.65
10 | C[C@@H](O)c1ccc2c(c1)ncn2-c1cccc(-c2cccnc2F)c1 [Compound 9aba, (R)-1-{1-[3-(2-Fluoro-pyridin-3-yl)-phenyl]-1H-benzoimidazol-5-yl}-ethanol] | 6.2
